According to patent US20250282803A1, “DIDEHYDRO-3'-DEOXY-4'-ETHYNYLTHYMIDINES AND RELATED COMPOUNDS AND THEIR USE IN TREATING MEDICAL CONDITIONS” (ROME Therapeutics, Inc., priority 2022, published 2025):

What was measured:
[1] = target: T1, LINE1 reverse transcriptase (Homo sapiens, UniProt O00370); experiment: Transient artificial-intron Cis LINE1 reporter assay; type: cell-based; conditions: HEK 293 cells, transient transfection; ratio FLuc/RLuc reports LINE1 activity
Procedure: The following compound (hereinafter “Test Compound”) was tested for ability to inhibit LINE1 reverse transcriptase using a transient artificial-intron Cis LINE1 reporter assay:
Additional exemplary compounds were also tested for ability to inhibit LINE1 reverse transcriptase using a transient artificial-intron Cis LINE1 reporter assay. Assay procedures and results are described below.
Intron-disrupted Firefly luciferase (FLuc) expression cassettes were generated as described by Xie, Y. et al. “Characterization of L1 retrotransposition with high-throughput dual-luciferase assays,” Nucleic Acid Res. (2011) Vol. 39, No. 3, e16. In addition, the plasmid contained an intact Renilla luciferase (RLuc) expression cassette on the vector backbone, in order to normalize transfection efficiency and measure potential cell toxicity.
HEK 293 cells were seeded in 96-well plates at 1,000 cells/well in 55 μL and grown for 24 hours. Cells were transfected with FuGeneHD (Promega) following the manufacturer's protocol. Each well received 0.133 ng plasmid, 0.4 μL FuGeneHD reagent, and 4.5 μL GlutaMAX-I-supplemented Opti-MEM I reduced-serum medium (Invitrogen). Cells were simultaneously treated with test compound serially diluted starting at 100 μM in a 3-fold dilution dose response.
Luminescence was measured using the Dual-Glo Luciferase Assay System (Promega) following the manufacturer's instructions. The ratio between FLuc and RLuc gene expression was used to report LINE1 activity.

[2] = target: T1, LINE1 reverse transcriptase; experiment: Stable artificial-intron Cis LINE1 reporter assay; type: cell-based; design: host or cells: HeLa Tet-On 3G; conditions: stable HeLa Tet-On 3G L1 reporter cells, doxycycline 500 ng/mL, 72 h; Firefly Luciferase activity
Procedure: Exemplary compounds were tested for ability to inhibit LINE1 reverse transcriptase using a stable artificial-intron Cis LINE1 reporter assay. Assay procedures and results are described below.
A stable HeLa Tet-On 3G (Takara, cat no 631183) cell line expressing a bi-directional inducible LINE1 construct was generated as described in Xie, Y. et al. “Cell division promotes efficient retrotransposition in a stable L1 reporter cell line,” Mobile DNA (2013) 4:10. Single cell clones were screened for high Luciferase expression and the highest expression Firefly expressing clone was chosen for compound testing.
Test compounds were serially diluted in DMSO and spotted in 96-well plates. Subsequently the HeLa L1 artificial-intron reporter cells were plated into the compound-containing wells (8,000 cells/well), and the cells were induced for reporter expression with doxycycline (Sigma cat no D9891) at a final concentration of 500 ng/mL. Luminescence was measured 72 h after plating using the Dual-Glo Luciferase Assay System (Promega cat no E2940) following the manufacturer's instructions. The Firefly Luciferase activity was used to report LINE1 activity.

T1 sequence (O00370 whole entry, looked up): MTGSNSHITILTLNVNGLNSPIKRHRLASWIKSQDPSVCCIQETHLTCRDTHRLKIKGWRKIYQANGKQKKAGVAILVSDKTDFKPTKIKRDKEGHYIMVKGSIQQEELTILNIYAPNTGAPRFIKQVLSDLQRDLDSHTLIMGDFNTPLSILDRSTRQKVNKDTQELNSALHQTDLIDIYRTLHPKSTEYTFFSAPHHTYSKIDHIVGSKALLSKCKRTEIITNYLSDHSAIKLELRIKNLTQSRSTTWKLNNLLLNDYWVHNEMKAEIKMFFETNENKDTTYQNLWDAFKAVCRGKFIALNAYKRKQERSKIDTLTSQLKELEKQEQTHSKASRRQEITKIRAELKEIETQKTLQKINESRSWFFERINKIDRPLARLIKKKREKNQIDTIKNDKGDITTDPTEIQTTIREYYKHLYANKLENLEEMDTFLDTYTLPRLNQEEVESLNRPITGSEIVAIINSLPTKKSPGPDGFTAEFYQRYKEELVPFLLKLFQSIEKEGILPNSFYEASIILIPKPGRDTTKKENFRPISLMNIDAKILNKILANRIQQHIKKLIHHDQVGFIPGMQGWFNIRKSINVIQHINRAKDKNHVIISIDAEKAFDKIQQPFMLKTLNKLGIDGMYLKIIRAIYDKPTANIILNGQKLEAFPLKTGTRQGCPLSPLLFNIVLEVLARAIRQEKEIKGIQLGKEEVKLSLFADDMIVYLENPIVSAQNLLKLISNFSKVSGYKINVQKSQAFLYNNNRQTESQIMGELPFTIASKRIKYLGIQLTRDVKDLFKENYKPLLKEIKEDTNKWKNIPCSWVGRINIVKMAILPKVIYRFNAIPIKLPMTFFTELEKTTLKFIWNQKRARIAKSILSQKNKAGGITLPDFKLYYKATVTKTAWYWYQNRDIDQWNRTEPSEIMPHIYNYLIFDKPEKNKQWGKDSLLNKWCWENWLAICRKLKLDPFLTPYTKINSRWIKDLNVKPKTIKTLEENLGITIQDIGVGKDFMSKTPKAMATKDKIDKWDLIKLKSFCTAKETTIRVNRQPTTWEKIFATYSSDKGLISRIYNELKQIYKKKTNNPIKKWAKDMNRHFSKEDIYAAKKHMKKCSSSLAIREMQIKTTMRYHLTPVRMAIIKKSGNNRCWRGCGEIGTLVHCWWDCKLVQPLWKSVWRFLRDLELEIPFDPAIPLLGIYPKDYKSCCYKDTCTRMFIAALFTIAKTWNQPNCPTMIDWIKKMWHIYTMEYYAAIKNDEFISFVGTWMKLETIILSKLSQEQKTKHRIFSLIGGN

| SMILES | IC50 [1] | IC50 [2] |
| --- | --- | --- |
| C#C[C@@]1(COP(=O)(N[C@@H](C)C(=O)OCC(C)(C)C)Oc2cccc3ccccc23)C=C[C@H](n2cc(C)c(=O)[nH]c2=O)O1 (single isomer, unassigned) [P-Diastereomer 1 from Example 2; I-16 or III-1] | 50 to 500 nM | 50 to 500 nM |
| C#C[C@@]1(COP(=O)(NC(C)(C)C(=O)OC(C)C)Oc2ccccc2)C=C[C@H](n2cc(C)c(=O)[nH]c2=O)O1 (single isomer, unassigned) [P-Diastereomer 2 from Example 2; II-22 or II-23] |  | > 500 nM |
| C#C[C@@]1(COP(=O)(N[C@@H](C)C(=O)OC)Oc2ccccc2)C=C[C@H](n2cc(C)c(=O)[nH]c2=O)O1 (mixture of isomers) [Methyl ((((2R,5R)-2-Ethynyl-5-(5-methyl-2,4-dioxo-3,4-dihydropyrimidin-1(2H)-yl)-2,5-dihydrofuran-2-yl)methoxy)(phenoxy)phosphoryl)-L-alaninate] |  | > 500 nM |
| C#C[C@@]1(COP(=O)(NC(C)(C)C(=O)OC(C)C)Oc2ccccc2)C=C[C@H](n2cc(C)c(=O)[nH]c2=O)O1 (single isomer, unassigned) [P-Diastereomer 1 from Example 2; II-22 or II-23] |  | > 500 nM |
| C#C[C@@]1(COP(=O)(N[C@@H](C)C(=O)OCc2ccccc2)Oc2ccccc2)C=C[C@H](n2cc(C)c(=O)[nH]c2=O)O1 (mixture of isomers) [Benzyl ((((2R,5R)-2-Ethynyl-5-(5-methyl-2,4-dioxo-3,4-dihydropyrimidin-1(2H)-yl)-2,5-dihydrofuran-2-yl)methoxy)(phenoxy)phosphoryl)-L-alaninate] |  | 50 to 500 nM |
| C#C[C@@]1(COP(=O)(NCc2ccccc2)OCCSC(=O)C(C)(C)CO)C=C[C@H](n2cc(C)c(=O)[nH]c2=O)O1 (single isomer, unassigned) [P-Diastereomer 1 from Example 3; II-1 or II-2] | 50 to 500 nM | 50 to 500 nM |
| C#C[C@@]1(CO)C=C[C@H](n2cc(C)c(=O)[nH]c2=O)O1 |  | 50 to 500 nM |
| C#C[C@@]1(COP(=O)(N[C@@H](C)C(=O)OC)Oc2ccc(Br)cc2)C=C[C@H](n2cc(C)c(=O)[nH]c2=O)O1 (single isomer, unassigned) [P-Diastereomer 2 from Example 2; I-7 or I-8] | 50 to 500 nM |  |
| C#C[C@@]1(COP(=O)(N[C@@H](C)C(=O)OCC(C)(C)C)Oc2cccc3ccccc23)C=C[C@H](n2cc(C)c(=O)[nH]c2=O)O1 (single isomer, unassigned) [P-Diastereomer 2 from Example 2; I-16 or III-1] | ≤ 50 nM | 50 to 500 nM |
| C#C[C@@]1(COP(=O)(N[C@@H](C)C(=O)OC)Oc2ccc(Br)cc2)C=C[C@H](n2cc(C)c(=O)[nH]c2=O)O1 (single isomer, unassigned) [P-Diastereomer 1 from Example 2; I-7 or I-8] |  | 50 to 500 nM |
| C#C[C@@]1(COP(=O)(NCc2ccccc2)OCCSC(=O)C(C)(C)CO)C=C[C@H](n2cc(C)c(=O)[nH]c2=O)O1 (single isomer, unassigned) [P-Diastereomer 2 from Example 3; II-1 or II-2] | 50 to 500 nM |  |

More lines, now with the values ahead:

| IC50 [1] | IC50 [2] | SMILES |
| --- | --- | --- |
| 50 to 500 nM | > 500 nM | C#C[C@@]1(CO[P@@](=O)(N[C@@H](C)C(=O)OC(C)C)Oc2ccccc2)C=C[C@H](n2cc(C)c(=O)[nH]c2=O)O1 [Compound I-2, Isopropyl ((S)-(((2R,5R)-2-Ethynyl-5-(5-methyl-2,4-dioxo-3,4-dihydropyrimidin-1(2H)-yl)-2,5-dihydrofuran-2-yl)methoxy)(phenoxy)phosphoryl)-L-alaninate] |
| 50 to 500 nM | 50 to 500 nM | C#C[C@@]1(CO[P@@](=O)(N[C@@H](C)C(=O)OCC(CC)CC)Oc2ccccc2)C=C[C@H](n2cc(C)c(=O)[nH]c2=O)O1 [Compound I-6, 2-Ethylbutyl ((S)-(((2R,5R)-2-Ethynyl-5-(5-methyl-2,4-dioxo-3,4-dihydropyrimidin-1(2H)-yl)-2,5-dihydrofuran-2-yl)methoxy)(phenoxy)phosphoryl)-L-alaninate] |
| 50 to 500 nM | 50 to 500 nM | C#C[C@@]1(CO[P@](=O)(N[C@@H](C)C(=O)OCC(CC)CC)Oc2ccccc2)C=C[C@H](n2cc(C)c(=O)[nH]c2=O)O1 [Compound I-5, 2-Ethylbutyl ((R)-(((2R,5R)-2-Ethynyl-5-(5-methyl-2,4-dioxo-3,4-dihydropyrimidin-1(2H)-yl)-2,5-dihydrofuran-2-yl)methoxy)(phenoxy)phosphoryl)-L-alaninate] |
| 50 to 500 nM | > 500 nM | C#C[C@@]1(CO[P@](=O)(N[C@@H](C)C(=O)OC(C)C)Oc2ccccc2)C=C[C@H](n2cc(C)c(=O)[nH]c2=O)O1 [Compound I-1, Isopropyl ((R)-(((2R,5R)-2-Ethynyl-5-(5-methyl-2,4-dioxo-3,4-dihydropyrimidin-1(2H)-yl)-2,5-dihydrofuran-2-yl)methoxy)(phenoxy)phosphoryl)-L-alaninate] |
|  | ≤ 50 nM | C#C[C@@]1(COP(=O)(OCOC(=O)OC(C)C)OCOC(=O)OC(C)C)C=C[C@H](n2cc(C)c(=O)[nH]c2=O)O1 [IV-1, 1-[(2R,5R)-5-[({di[(isopropoxycarbonyl)oxy]methoxyphosphoryl}oxy)methyl]-5-ethynyl-2H-furan-2-yl]-5-methyl-3H-pyrimidine-2,4-dione] |
